Laboratory results from patent US12257238B2, “Magnesium biotinate compositions and methods of use” (Nutrition21, LLC, priority 2016, dated 2025).
Converted amounts (≈) assume the structure as drawn. Like-named read-outs stand apart in the source and are kept apart here.

Key:
[1] = Absorption study in rats: serum, liver and brain biotin; conditions: for Brain Biotin / Liver Biotin / Serum Biotin: 30 days, mean
[2] = cited from earlier work
[3] = in vivo; conditions: male, Sprague-Dawley, rat, serum, oral
[4] = system: Liver cGMP; assay: Liver cGMP in rats; format: in vivo, male Sprague-Dawley rats; conditions: 30 days, mean
[5] = Solubility of magnesium D-biotinate; conditions: for Solubility in water: compared with biotin
[6] = Stability of magnesium D-biotinate (storage, hygroscopicity, light); format: physicochemical
[7] = 1 mg/kg body weight, listed as B, 1 mg/kg
[8] = 100 mg/kg body weight, listed as B, 100 mg/kg
[9] = 0.01 mg/kg body weight, listed as MgB, 0.01 mg/kg
[10] = 1 mg/kg body weight, listed as MgB, 1 mg/kg
[11] = 100 mg/kg body weight, listed as MgB, 100 mg/kg

SMILES: O=C(O)CCCC[C@@H]1SC[C@@H]2NC(=O)N[C@@H]21 [Biotin, D-biotin]
- Brain Biotin ([1]; 0.01 mg/kg body weight): 0.14 nmol/g
- Liver Biotin ([1]; 0.01 mg/kg body weight, listed as B, 0.01 mg/kg): 0.02 nmol/g
- Brain Biotin [1, 7]: 0.42 nmol/g
- Liver Biotin [1, 7]: 0.56 nmol/g
- Brain Biotin [1, 8]: 1.37 nmol/g
- Liver Biotin [1, 8]: 1.38 nmol/g
- Solubility ([2]; Benzene): Soluble
- Solubility ([2]; Dimethyl sulfoxide (DMSO)): 4.9 g/100 mL
- Solubility ([2]; Ethanol): 80 mg/100 mL
- Solubility ([2]; Methanol): 80 mg/100 mL
- Solubility ([2]; N,N-Dimethylformamide (DMF)): 170 mg/100 mL
- Solubility ([2]; N,N-dimethylformamide, Merck Index): 1.7 mg/mL (≈ 6.96 mM)
- Solubility ([2]; Water): 22 mg/100 mL
- Solubility ([2]; other common organic solvents, Merck Index): insoluble
- concentration at 30 days ([3]; 0.01 mg/kg): 23.6 nM
- concentration at 30 days ([3]; 1 mg/kg): 137 nM
- concentration at 30 days ([3]; 100 mg/kg): 3520 nM
- Liver cGMP ([4]; 0.01 mg/kg body weight): 8.46 pmol/mg protein
- Liver cGMP ([4]; 1 mg/kg body weight): 12.01 pmol/mg protein
- Liver cGMP ([4]; 100 mg/kg body weight): 14.68 pmol/mg protein

SMILES: O=C(O)CCCC[C@@H]1SC[C@@H]2NC(=O)N[C@@H]21 [magnesium D-biotinate]
- Liver Biotin [1, 9]: 0.03 nmol/g
- Serum Biotin [1, 9]: 23.41 nmol/L
- Brain Biotin [1, 10]: 0.66 nmol/g
- Liver Biotin [1, 10]: 0.71 nmol/g
- Serum Biotin [1, 10]: 171.13 nmol/L
- Brain Biotin [1, 11]: 1.65 nmol/g
- Liver Biotin [1, 11]: 1.62 nmol/g
- Serum Biotin [1, 11]: 5161.43 nmol/L
- Absorption ([1]; compared to biotin): higher absorption
- Solubility ([5]; Water): ~10000 µg/mL (≈ 40.9 mM)
- Solubility ([5]; water): ≥ 10000 µg/mL
- Solubility in water ([5]; water): unexpectedly soluble in water
- Solubility in water ([5]; water, listed as magnesium biotinate): significantly improved solubility
- Storage stability ([6]; 30 days at 40% relative humidity and 25° C.): stable
- Storage stability ([6]; 30 days at 40% relative humidity and 25° C., listed as Magnesium biotinate): no signs of degradation
- Storage stability ([6]; 30 days at 75% relative humidity and 40° C.): stable
- Storage stability ([6]; 30 days at 75% relative humidity and 40° C., listed as Magnesium biotinate): no signs of degradation
- Stability on exposure to light ([6]; amorphous solid): stable upon exposure to light
- Hygroscopicity ([6]; amorphous solid, as measured by weight): not hygroscopic
- Stability on exposure to light ([6]; amorphous solid, listed as Magnesium biotinate): did not change color
- Storage stability ([6]; room temperature): stable
- Liver cGMP ([4]; 0.01 mg/kg body weight): 8.60 pmol/mg protein
- Liver cGMP ([4]; 1 mg/kg body weight): 13.04 pmol/mg protein
- Liver cGMP ([4]; 100 mg/kg body weight): 17.07 pmol/mg protein

SMILES: [O]=[Mg] [MgO, magnesium oxide]
- Solubility ([2]; Benzene): salts insoluble
- Solubility ([2]; Dimethyl sulfoxide (DMSO)): MgO insoluble;
- Solubility ([2]; Ethanol): MgO insoluble;
- Solubility ([2]; Methanol): MgO insoluble;
- Solubility ([2]; N,N-Dimethylformamide (DMF)): MgO insoluble;
- Solubility ([2]; Water): MgO insoluble;
